According to ChEMBL document CHEMBL6115034, “Pseudonatural Flavonols as Novel Copper Ionophores for NAFLD Intervention via Synergistic Copper Delivery and Flavonoid Activity” (J Med Chem, 2025):
The source made the active and inactive calls.

Columns and labels:
HepG2 [1] = assay: Anti-NAFLD activity in palmitic acid human HepG2 NAFLD cell model assessed as effect on IFIT3 expression at 0.5 uM incubated for 24 hrs in presence of CuCl2 by mRNA sequencing analysis; format: functional, cell-based
HepG2 [2] = assay: Anti-NAFLD activity in palmitic acid human HepG2 NAFLD cell model assessed as increase in lipid droplet level at 5 uM compound administrated as copper complex measured at 24 hrs by Oil Red O staining based assay relative to control; format: functional
HepG2 [3] = assay: Anti-NAFLD activity in palmitic acid human HepG2 NAFLD cell model assessed as upregulation of PRDX1 expression at 0.5 uM incubated for 24 hrs in presence of CuCl2 by mRNA sequencing analysis; format: functional, cell-based
Mus musculus [4] = assay: Anti-NAFLD activity in high-fat diet-induced male C57BL/6J mouse model assessed as reduction in serum NEFA level at 125 mg/kg, po compound administrated as copper complex measured for 10 weeks; format: functional; design: scale not given: the % may be the effect or the level left
HepG2 [5] = assay: Anti-NAFLD activity in palmitic acid human HepG2 NAFLD cell model assessed as effect on HMOX1 expression at 0.5 uM incubated for 24 hrs in presence of CuCl2 by mRNA sequencing analysis; format: functional, cell-based
HeLa [6] = assay: Induction of copper transporting activity in human HeLa cells assessed as increase in intracellular copper levels at 0.02 to 20 uM by ICP-MS analysis; format: functional, cell-based; details: dose 0.02-20 µM, time <= 24.0 hrs
Mus musculus [7] = assay: Anti-NAFLD activity in high-fat diet-induced male C57BL/6J mouse model assessed as increase in R5P level in liver at 125 mg/kg, po compound administrated as copper complex measured for 10 weeks by LC-MS/MS analysis; format: functional, organism-based
[8] = Stability of compound in PBS buffer in presence of cysteine by UV-Vis spectrophotometer analysis; format: physicochemical
HepG2 [9] = assay: Cytotoxicity against human HepG2 cells assessed as cell viability at 0.1 to 5 uM compound administrated as copper complex measured at 24 hrs by MTT assay; format: functional, cell-based; details: dose 0.1-5 µM
HeLa [10] = assay: Induction of copper transporting activity in human HeLa cells assessed as increase in intracellular copper levels by measuring change in fluorescence intensity; format: functional, cell-based
HepG2 [11] = assay: Anti-NAFLD activity in palmitic acid human HepG2 NAFLD cell model assessed as upregulation of MT1X expression at 0.5 uM incubated for 24 hrs in presence of CuCl2 by mRNA sequencing analysis; format: functional, cell-based
[12] = Toxicity in male C57BL/6 mouse assessed as change in body weight at 125 mg/kg, po compound administrated as copper complex measured for 10 weeks; format: organism-based; details: in vivo, 1680 h
Mus musculus [13] = assay: Anti-NAFLD activity in high-fat diet-induced male C57BL/6J mouse model assessed as increase in Ru5P level in liver at 125 mg/kg, po compound administrated as copper complex measured for 10 weeks by LC-MS/MS analysis; format: functional, organism-based
HepG2 [14] = assay: Anti-NAFLD activity in palmitic acid human HepG2 NAFLD cell model assessed as upregulation of CYP4F11 expression at 0.5 uM incubated for 24 hrs in presence of CuCl2 by mRNA sequencing analysis; format: functional, cell-based
HepG2 [15] = assay: Anti-NAFLD activity in palmitic acid human HepG2 NAFLD cell model assessed as downregulation of STAT2 expression at 0.5 uM incubated for 24 hrs in presence of CuCl2 by mRNA sequencing analysis; format: functional, cell-based
HepG2 [16] = assay: Anti-NAFLD activity in palmitic acid human HepG2 NAFLD cell model assessed as upregulation of TXN expression at 0.5 uM incubated for 24 hrs in presence of CuCl2 by mRNA sequencing analysis; format: functional, cell-based
HepG2 [17] = assay: Anti-NAFLD activity in palmitic acid human HepG2 NAFLD cell model assessed as upregulation of POR expression at 0.5 uM incubated for 24 hrs in presence of CuCl2 by mRNA sequencing analysis; format: functional, cell-based
Mus musculus [18] = assay: Anti-NAFLD activity in high-fat diet-induced male C57BL/6J mouse model assessed as increase in liver weight at 125 mg/kg, po compound administrated as copper complex measured for 10 weeks […]; format: functional, organism-based
Mus musculus [19] = assay: Anti-NAFLD activity in high-fat diet-induced male C57BL/6J mouse model assessed as increase in malic acid level at 125 mg/kg, po compound administrated as copper complex measured for 10 weeks by LC-MS/MS analysis; format: functional, organism-based
[20] = Toxicity in male C57BL/6 mouse assessed as heart lesion at 125 mg/kg, po compound administrated as copper complex measured for 10 weeks; format: organism-based; details: in vivo, 1680 h
[21] = Stability of the compound in cell culture medium containing 10% fetal bovine serum in presence of histidine by UV-Vis spectrophotometer analysis; format: physicochemical, cell-free; details: cattle
Mus musculus [22] = assay: Anti-NAFLD activity in high-fat diet-induced male C57BL/6J mouse model assessed as increase in F6P level in liver at 125 mg/kg, po compound administrated as copper complex measured for 10 weeks by LC-MS/MS analysis; format: functional, organism-based
HepG2 [23] = assay: Anti-NAFLD activity in palmitic acid human HepG2 NAFLD cell model assessed as upregulation of SOD1 expression at 0.5 uM incubated for 24 hrs in presence of CuCl2 by mRNA sequencing analysis; format: functional, cell-based
Mus musculus [24] = assay: Anti-NAFLD activity in high-fat diet-induced male C57BL/6J mouse model assessed as increase in copper level in liver at 125 mg/kg, po compound administrated as copper complex measured for 10 weeks by ICP-MS analysis; format: functional, organism-based
[25] = Stability of compound in PBS buffer in presence of histidine by UV-Vis spectrophotometer analysis; format: physicochemical
HepG2 [26] = assay: Anti-NAFLD activity in palmitic acid human HepG2 NAFLD cell model assessed as upregulation of CAT expression at 0.5 uM incubated for 24 hrs in presence of CuCl2 by mRNA sequencing analysis; format: functional, cell-based
HepG2 [27] = assay: Anti-NAFLD activity in palmitic acid human HepG2 NAFLD cell model assessed as decrease in lipid droplet level at 5 uM measured at 24 hrs by Oil Red O staining based assay relative to control; format: functional; design: scale not given: the % may be the effect or the level left
Mus musculus [28] = assay: Anti-NAFLD activity in high-fat diet-induced male C57BL/6J mouse model assessed as increase in E4P level in liver at 125 mg/kg, po compound administrated as copper complex measured for 10 weeks by LC-MS/MS analysis; format: functional, organism-based
[29] = Stability of the compound in cell culture medium containing 10% fetal bovine serum in presence of cysteine by UV-Vis spectrophotometer analysis; format: physicochemical, cell-free; details: cattle
Mus musculus [30] = assay: Anti-NAFLD activity in high-fat diet-induced male C57BL/6J mouse model assessed as increase in X5P level in liver at 125 mg/kg, po compound administrated as copper complex measured for 10 weeks by LC-MS/MS analysis; format: functional, organism-based
HepG2 [31] = assay: Cytotoxicity against human HepG2 cells assessed as cell viability at 0.1 to 5 uM measured at 24 hrs by MTT assay; format: functional, cell-based; details: dose 0.1-5 µM
Hepatocyte = assay: Cytotoxicity against mouse Hepatocyte assessed as cell viability at 0.1 to 5 uM compound administrated as copper complex measured at 24 hrs by MTT assay; format: toxicity, cell-based; details: hepatocytes, dose 0.1-5 µM

O=c1c(O)c(-c2ccc3cccc(O)c3n2)oc2ccccc12
Non-toxic: Activity [12] | Activity [20] | Activity (Hepatocyte)
active: Activity (HepG2 [1]) | Activity (HepG2 [3]) | Activity (HepG2 [5]) | Activity (HeLa [6]) Time-dependent-effect | Activity (Mus musculus [7]) | Activity (HepG2 [9]) | Activity (HeLa [10]) | Activity (HepG2 [11]) | Activity (Mus musculus [13]) | Activity (HepG2 [14]) | Activity (HepG2 [15]) | Activity (HepG2 [16]) | Activity (HepG2 [17]) | Activity (Mus musculus [18]) | Activity (Mus musculus [19]) | Activity (Mus musculus [22]) | Activity (HepG2 [23]) | Activity (Mus musculus [24]) | Activity (HepG2 [26]) | Activity (Mus musculus [28]) | Activity (Mus musculus [30]) | Activity (HepG2 [31])
Stable: Stability [8] | Stability [21] | Stability [25] | Stability [29]
61%: Activity (HepG2 [27])
52%: Activity (Mus musculus [4])
31%: Activity (HepG2 [2])
